Consider one compound from patent publication US9221791B2, “Metalloenzyme inhibitor compounds” (Viamet Pharmaceuticals, Inc., priority 2011, dated 2015).

For one data set, the target named is CYP3A4 (Homo sapiens (Human), UniProt P08684). Briefly: Inhibition of Liver Cytochrome P450 Enzymes (pooled human liver microsomes), CYP3A4. The data set is classed as in vitro ADME. On the procedure: B. Inhibition of Liver Cytochrome P450 Enzymes
Solutions of each test compound were separately prepared at concentrations of 20000, 6000, 2000, 600, 200, and 60 μM by serial dilution with DMSO:MeCN (50:50 v/v). The individual test compound solutions were then diluted 20-fold with DMSO:MeCN:deionized water (5:5:180 v/v/v) to concentrations of 1000, 300, 100, 30, 10, and 3 μM. Mixtures of isozyme inhibitors (sulfaphenazole, tranylcypromine, and ketoconazole as specific inhibitors of isozymes 2C9, 2C19, and 3A4, respectively) were prepared containing each inhibitor at concentrations of 6000, 2000, 600, 200, 60, 20, 6, and 2 μM by serial dilution with DMSO:CH3CN (50:50 v/v). […]
Pooled human liver microsome suspension (20 mg/mL) was diluted with phosphate buffer to obtain a 5 mg/mL suspension. […] Separate stock solutions of each substrate were prepared in DMSO:MeCN (50:50 v/v), mixed, and diluted in phosphate buffer to obtain a single solution containing each substrate at five times its experimentally determined Km concentration. […]
Substrate solution and microsome suspension were combined in a 1:1 volume ratio, mixed, and distributed to reaction wells of a PCR plate. […] A portion of the supernatant was analyzed by gradient reverse-phase HPLC with detection by electrospray ionization triple quadrupole mass spectrometry in the positive ion mode. […]

The test system of data set [1] is Septoria tritici (ATCC 26517). Briefly: Minimum Inhibitory Concentration (MIC) (Septoria tritici), CLSI-based microdilution. The class given is cell-based. Particulars: S. tritici ATCC 26517; 22° C. for seven days; 50% reduction in growth. The method, boiled down:
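S. tritici (ATCC 26517) tested by CLSI-style broth microdilution for filamentous fungi in RPMI-1640/MOPS, 2-fold series 16–0.016 μg/mL (11 concentrations, 2% DMSO before inoculum), duplicate rows. Inoculum ~5×10^4 cfu/mL; plates incubated 7 days at 22 °C in the dark, static; growth scored on a rating scale.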

For another data set, the system named is C. albicans. Briefly: Minimum Inhibitory Concentration (MIC) (C. albicans), CLSI M27-A2. The class given is cell-based. As to conditions: Candida albicans; approximately 48 h at 35±1° C.; about 50% growth reduction. On the procedure:
A. Minimum Inhibitory Concentration (MIC) (C. albicans) Compounds of the present disclosure were assessed for their ability to inhibit the growth of common strains of fungus, C. albicans using a standardized procedure (CLSI M27-A2). Stock solutions of the test compounds and standards were prepared in DMSO at 1,600 μg/mL (C. albicans). Eleven, serial, one-half dilutions of compounds were prepared in 96-well plates in RPMI+MOPS. The assay concentration ranges were 8-0.001 μg/mL (C. albicans). Cell suspensions of C. albicans were prepared and added to each well at concentrations of approximately 3.7×10^3 colony-forming-units per milliliter (cfu/mL). All testing was in duplicate. The inoculated plates were incubated for approximately 48 h at 35±1° C. At the completion of incubation the wells of each plate were evaluated visually for the presence of fungal growth. […] For QC purposes C. krusei isolate ATCC 6258 (4.0×10^3 cfu/mL) was included in the VOR assay.

Structures are written as SMILES. In brackets after ≈: the same amount, converted by molar mass.

Chain of CYP3A4 (P08684 whole entry): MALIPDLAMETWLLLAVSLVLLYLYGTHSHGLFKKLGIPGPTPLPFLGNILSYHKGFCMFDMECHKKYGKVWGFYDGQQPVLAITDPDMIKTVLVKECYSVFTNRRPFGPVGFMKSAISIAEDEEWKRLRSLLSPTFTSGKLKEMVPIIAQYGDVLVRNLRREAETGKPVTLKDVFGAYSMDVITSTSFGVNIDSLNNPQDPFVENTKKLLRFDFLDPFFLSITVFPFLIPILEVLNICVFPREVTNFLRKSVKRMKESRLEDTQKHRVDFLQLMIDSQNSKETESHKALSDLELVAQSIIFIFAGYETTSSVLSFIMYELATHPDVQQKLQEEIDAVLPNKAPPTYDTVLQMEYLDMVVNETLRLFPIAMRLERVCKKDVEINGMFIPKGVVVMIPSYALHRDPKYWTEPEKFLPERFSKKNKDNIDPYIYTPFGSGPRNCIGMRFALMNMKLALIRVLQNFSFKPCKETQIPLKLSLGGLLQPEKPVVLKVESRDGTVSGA

`OC(Cn1cnnn1)(c1ccc(F)cc1F)C(F)(F)c1ccc(-c2ccc(F)nc2)cn1` (stereo not drawn) [Compound 31, 2-(2,4-Difluorophenyl)-1,1-difluoro-1-(6′-fluoro-[3,3′-bipyridin]-6-yl)-3-(1H-tetrazol-1-yl)propan-2-ol] returned a concentration for half-maximal inhibition (IC50) against CYP3A4 of 33 µM. Besides, in data set [1], the “Septoria Rating (MIC)” value was “C (>1.5-4)”. The compound also had an MIC against C. albicans of 0.062 µg/mL (≈ 0.138 µM).
